Assay [1] concerns P. aeruginosa VR-143/97. The assay can be described thus: In vivo antibacterial activity, mice infected ip with lethal amount of MDR P. aeruginosa VR-143/97. Also noted: species or system Balb-c mice. The settings on record: MDR P. aeruginosa VR-143/97 1.5×10^7 CFU ip; single dose 25 mg/Kg. On the procedure:
FIG. 4. In vivo antibacterial activity of tetra-branched M33 peptide. A, Balb-c mice (20 g) were intra-peritoneally injected with a lethal amount of E. coli TG1 cells (1.5×10^9 CFU). Continuous line (Ctr) indicates mice only injected ip with bacteria and no M33. Broken line indicates mice injected ip with bacteria and a single injection of M33 peptide 10 mg/Kg 30 minutes later. B, Balb-c mice (20 g) were intra-peritoneally injected with a lethal amount of P. aeruginosa cells (ATCC 27853 1×10^7 CFU). Continuous line (Ctr) indicates mice which only received bacteria; other groups received bacteria and a single dose of M33 30 minutes later (see figure for doses of M33). C, Balb-c mice (20 g) were intra-peritoneally injected with a lethal amount of P. aeruginosa cells (multi drug resistant VR 147 clinical isolate, 1.5×10^7 CFU). Continuous line (Ctr) indicates mice which only received bacteria; broken line indicates mice which received bacteria and a single dose of M33 25 mg/Kg. D, Balb-c mice (20 g) were intra-peritoneally injected with a lethal amount of P. aeruginosa cells (ATCC 27853 1×10^7 CFU). […]
Tetra-branched M33 peptide was analysed for its antibacterial activity in mice infected with lethal amounts of bacteria. […]

Assay [2] relates to P. aeruginosa and K. pneumoniae. It is filed as cell-based. Particulars: 24 h. On the procedure: M33, […], M35 and M36 MICs were determined against strains of several bacterial species, including Gram-negative pathogens and also Staphylococcus aureus (Table 1). MICs in the micromolar range were observed against several Gram-negatives including Pseudomonas aeruginosa, Acinetobacter baumannii and most Enterobacteriaceae, with the exception of Proteus mirabilis, Serratia marcescens and Burkholderia cepacia. Activity of peptides was retained against MDR strains with various resistance mechanisms (such as extended-spectrum beta-lactamases and carbapenemases), including MDR P. aeruginosa strains from CF patients. Antimicrobial profile of M33, […] and potency were overall similar to those of polymyxin B, although M33, M34, M35 and M36 also appeared to have some activity against S. aureus (Table 1).
Then it was examined for inhibiting LPS-induced TNF-α, secretion by Raw 264.7 macrophages.

The structures appear in SMILES notation. Where a SMILES comes first, the peptide text is derived from it. Bridges are numbered along the chain shown (N, C = ends). Roman numbers before positions name the chains, in order. [ ]: non-standard residue; d: D form. βAla = NCCC(=O)O

Broadly, the MIC is the lowest concentration that inhibits growth of the organism. `CC[C@H](C)[C@H](NC(=O)[C@H](CCCCN)NC(=O)[C@@H](N)CCCCN)C(=O)N[C@@H](CCCNC(=N)N)C(=O)N[C@H](C(=O)N[C@@H](CCCNC(=N)N)C(=O)N[C@@H](CC(C)C)C(=O)N[C@@H](CO)C(=O)N[C@@H](C)C(=O)NCCCC[C@H](NC(=O)[C@H](C)NC(=O)[C@H](CO)NC(=O)[C@H](CC(C)C)NC(=O)[C@H](CCCNC(=N)N)NC(=O)[C@@H](NC(=O)[C@H](CCCNC(=N)N)NC(=O)[C@@H](NC(=O)[C@H](CCCCN)NC(=O)[C@@H](N)CCCCN)[C@@H](C)CC)C(C)C)C(=O)NCCCC[C@H](NC(=O)[C@H](CCCCNC(=O)[C@H](C)NC(=O)[C@H](CO)NC(=O)[C@H](CC(C)C)NC(=O)[C@H](CCCNC(=N)N)NC(=O)[C@@H](NC(=O)[C@H](CCCNC(=N)N)NC(=O)[C@@H](NC(=O)[C@H](CCCCN)NC(=O)[C@@H](N)CCCCN)[C@@H](C)CC)C(C)C)NC(=O)[C@H](C)NC(=O)[C@H](CO)NC(=O)[C@H](CC(C)C)NC(=O)[C@H](CCCNC(=N)N)NC(=O)[C@@H](NC(=O)[C@H](CCCNC(=N)N)NC(=O)[C@@H](NC(=O)[C@H](CCCCN)NC(=O)[C@@H](N)CCCCN)[C@@H](C)CC)C(C)C)C(=O)NCCC(=O)O)C(C)C` [M33, KKIRVRLSA] (I: H-KKIRVRLSAKK[βAla]-OH / II: H-KKIRVRLSAK / III: H-KKIRVRLSA / IV: H-KKIRVRLSA; amide I:10-IV:C, I:11-II:C, II:10-III:C; N-terminus assumed): the Animals protected in assay [1] is 100%. This compound also yielded an MIC in assay [2] of 1.5 to 3 µM.

The values above are taken from patent publication US8440794B2, “Peptide sequences, their branched form and use thereof for antimicrobial applications” (Universita' Degli Studi di Siena, priority 2008, dated 2013).
